Experimental data reported in ChEMBL document CHEMBL2311364, “Novel peptidomimetics as BACE-1 inhibitors: synthesis, molecular modeling, and biological studies” (Bioorg Med Chem Lett, 2013).
Calls of active or inactive are those of the source. No cut-off for these calls is given here.

Assays:
Beta-secretase 1 [1] = biological target: T1, Beta-secretase 1 (Homo sapiens, UniProt P56817); experiment: Inhibition of human recombinant BACE-1 using acetyl-C(W8044-Eu)-EVNLDAEFK-QSY7 as substrate by TR-FRET assay
T1 sequence (P56817 whole entry): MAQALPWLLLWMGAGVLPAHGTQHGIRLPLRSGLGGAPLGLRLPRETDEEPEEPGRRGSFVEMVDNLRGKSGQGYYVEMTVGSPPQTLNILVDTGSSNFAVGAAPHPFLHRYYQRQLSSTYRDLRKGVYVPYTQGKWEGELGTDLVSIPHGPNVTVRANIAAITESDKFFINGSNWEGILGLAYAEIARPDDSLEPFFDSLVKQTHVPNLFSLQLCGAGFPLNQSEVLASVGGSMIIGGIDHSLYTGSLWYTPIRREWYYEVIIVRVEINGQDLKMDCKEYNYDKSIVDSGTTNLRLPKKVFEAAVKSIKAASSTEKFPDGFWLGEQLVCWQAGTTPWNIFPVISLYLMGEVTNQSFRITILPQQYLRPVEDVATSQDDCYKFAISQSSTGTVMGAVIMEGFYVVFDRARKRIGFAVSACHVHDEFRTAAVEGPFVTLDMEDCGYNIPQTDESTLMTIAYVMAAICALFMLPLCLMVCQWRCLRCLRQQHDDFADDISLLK

Beta-secretase 1 [2] = biological target: T1, Beta-secretase 1; experiment: Inhibition of human recombinant BACE-1 using acetyl-C(W8044-Eu)-EVNLDAEFK-QSY7 as substrate at 100 uM by TR-FRET assay
Beta-secretase 1 [3] = biological target: T1, Beta-secretase 1; experiment: Inhibition of BACE1 in HEK293 cells expressing modified BACE cleavage sequence of APP, NFEV and K612V mutation; format: cell-based
Beta-secretase 1 [4] = biological target: T1, Beta-secretase 1; experiment: Inhibition of BACE1 in human SHSY5Y cells expressing APP NFEV and wild-type alpha-cleavage site; format: cell-based, SH-SY5Y

| IC50 (Beta-secretase 1 [1]) [µM] | IC50 (Beta-secretase 1 [3]) [µM] | IC50 (Beta-secretase 1 [4]) [µM] | SMILES | inhibition (Beta-secretase 1 [2]) |
| --- | --- | --- | --- | --- |
| 4.9 |  |  | CC(C)(C)OC(=O)N1CCN(CC(O)c2ccc(C(=O)c3ccccc3)c(NC(=O)[C@H](NC(=O)OCc3ccccc3)c3ccccc3)c2)CC1 (stereo partly drawn) |  |
|  |  |  | O=C1Nc2cc(C(O)CNCc3ccccc3)ccc2C(c2ccccc2)=N[C@@H]1c1ccccc1 (stereo partly drawn) | inactive |
|  |  |  | O=C1Nc2c(cccc2N2CCNCC2)C(c2ccccc2)=N[C@H]1c1ccccc1 | inactive |
| 2.6 | > 2.6 | > 1.2 | O=C(N[C@@H](C(=O)Nc1cc(C(O)CNCc2ccccc2)ccc1C(=O)c1ccccc1)c1ccccc1)OCc1ccccc1 (stereo partly drawn) |  |
| 4.1 | > 2.6 | > 1.2 | O=C(N[C@H](C(=O)Nc1cc(C(CO)NCc2ccccc2)ccc1C(=O)c1ccccc1)c1ccccc1)OCc1ccccc1 (stereo partly drawn) |  |
|  |  |  | CC(C)(C)OC(=O)N1CCN(CC(O)c2ccc3c(c2)NC(=O)[C@@H](c2ccccc2)N=C3c2ccccc2)CC1 (stereo partly drawn) | inactive |
|  |  |  | CC(C)(C)OC(=O)N1CCN(c2cccc3c2NC(=O)[C@H](Cc2ccccc2)N=C3c2ccccc2)CC1 | inactive |
| 4.2 |  |  | O=C(N[C@@H](C(=O)Nc1cc(C(CO)NCc2ccccc2)ccc1C(=O)c1ccccc1)c1ccccc1)OCc1ccccc1 (stereo partly drawn) |  |
|  |  |  | CC(C)(C)OC(=O)N1CCN(c2cccc3c2NC(=O)[C@H](CCc2ccccc2)N=C3c2ccccc2)CC1 | inactive |
| 2.4 | > 2.6 | > 1.2 | O=C(N[C@H](C(=O)Nc1cc(C(O)CNCc2ccccc2)ccc1C(=O)c1ccccc1)c1ccccc1)OCc1ccccc1 (stereo partly drawn) |  |
|  |  |  | CC(C)(C)OC(=O)N1CCN(c2cccc(C(=O)c3ccccc3)c2NC(=O)[C@@H](NC(=O)OCc2ccccc2)c2ccccc2)CC1 | inactive |

| SMILES | IC50 (Beta-secretase 1 [1]) [µM] | IC50 (Beta-secretase 1 [3]) [µM] | IC50 (Beta-secretase 1 [4]) [µM] | inhibition (Beta-secretase 1 [2]) |
| --- | --- | --- | --- | --- |
| CC(C)(C)OC(=O)N1CCN(c2cccc3c2NC(=O)[C@H](c2ccccc2)N=C3c2ccccc2)CC1 | 35 |  |  |  |
| O=C1Nc2cc(C(CO)NCc3ccccc3)ccc2C(c2ccccc2)=N[C@@H]1c1ccccc1 (stereo partly drawn) | 10.9 |  |  |  |
| O=C1Nc2cc(C(CO)NCc3ccccc3)ccc2C(c2ccccc2)=N[C@H]1c1ccccc1 (stereo partly drawn) |  | > 22 | > 11 |  |
| CC(C)(C)OC(=O)N1CCN(c2cccc3c2NC(=O)[C@@H](c2ccccc2)N=C3c2ccccc2)CC1 | 43 |  |  |  |
| O=C1Nc2ccccc2C(c2ccccc2)=N[C@H]1C(O)CN1CCNCC1 (stereo partly drawn) | 12.5 |  |  |  |
